According to ChEMBL document CHEMBL6127141, “1-Deoxynojirimycin Derivative Containing Tegafur Induced HCT-116 Cell Apoptosis through Mitochondrial Dysfunction and Oxidative Stress Pathway” (ACS Med Chem Lett, 2024):
Blank lines part the entries; values can stand above or below the molecule they belong to. The source made the active and inactive calls. No cut-off for these calls is given here.

What was measured:
[1] = Lipophilicity, logP of compound in n-octanol saturated PBS incubated for 24 hrs by shake-flask method based ultraviolet spectrophotometry; type: physicochemical
[2] = target: Alpha glucosidase (Homo sapiens, UniProt O43451+P10253+P14410+Q2M2H8); assay: Inhibition of alpha-glucosidase (unknown origin) using para-nitrophenyl-alpha-d-glucopyranoside as substrate preincubated for 5 mins followed by substrate addition and measured after 30 mins by microplate reader; type: protein assay
[3] = test system: HeLa; assay: Cytotoxicity against human HeLa cells assessed as inhibition of cell proliferation incubated for 48 hrs by MTT assay; type: functional, cell-based
[4] = test system: HCC1937; assay: Cytotoxicity against human HCC1937 cells assessed as inhibition of cell proliferation incubated for 48 hrs by MTT assay; type: functional, cell-based; conditions: HCC1937, 48 h
[5] = test system: A549; assay: Cytotoxicity against human A549 cells assessed as inhibition of cell proliferation incubated for 48 hrs by MTT assay; type: functional, cell-based; conditions: A549, 48 h
[6] = test system: HCT-116; assay: Cytotoxicity against human HCT-116 cells assessed as inhibition of cell proliferation incubated for 48 hrs by MTT assay; type: functional, cell-based; conditions: HCT-116, 48 h
[7] = test system: BGC-823; assay: Cytotoxicity against human BGC-823 cells assessed as inhibition of cell proliferation incubated for 48 hrs by MTT assay; type: functional, cell-based; conditions: BGC-823, 48 h
[8] = test system: HepG2; assay: Cytotoxicity against human HepG2 cells assessed as inhibition of cell proliferation incubated for 48 hrs by MTT assay; type: functional, cell-based; conditions: HepG2, 48 h
[9] = test system: L02; assay: Cytotoxicity against human L02 cells assessed as inhibition of cell proliferation incubated for 48 hrs by MTT assay; type: functional, cell-based; conditions: L02, 48 h
[10] = Selectivity index, ratio of IC50 for cytotoxicity against human L02 cells to IC50 for cytotoxicity against human HCT-116 cells; type: toxicity, cell-based; conditions: L02 cells and HCT-116 cells, read-out: Ratio IC50
[11] = test system: HCT-116; assay: Anti-metastatic activity in human HCT-116 cells assessed as inhibition of cell migration by measuring wound healing rate at 10 uM incubated for 24 hrs by inverted fluorescence microscopic analysis relative to control; type: functional; design: scale not given: the % may be the effect or the level left
[12] = test system: HCT-116; assay: Anti-metastatic activity in human HCT-116 cells assessed as inhibition of cell migration by measuring wound healing rate at 10 uM incubated for 24 hrs in presence of tegafur by inverted fluorescence microscopic analysis relative to control; type: functional; design: scale not given: the % may be the effect or the level left
[13] = test system: HCT-116; assay: Induction of cell cycle arrest in human HCT-116 cells assessed as accumulation of cells at S phase at 10 uM incubated for 24 hrs by flow cytometric analysis (reference value: 4.7 %); type: functional
[14] = test system: HCT-116; assay: Induction of cell cycle arrest in human HCT-116 cells assessed as accumulation of cells at S phase at 10 uM incubated for 24 hrs in presence of tegafur by flow cytometric analysis (reference value: 4.7 %); type: functional
[15] = test system: HCT-116; assay: Induction of apoptosis in human HCT-116 cells assessed as apoptotic cells at 10 uM incubated for 24 hrs by Annexin V-FITC/PI staining based flow cytometric analysis relative to control; type: functional
[16] = test system: HCT-116; assay: Induction of apoptosis in human HCT-116 cells assessed as apoptotic cells at 10 uM incubated for 24 hrs in presence of tegafur by Annexin V-FITC/PI staining based flow cytometric analysis relative to control; type: functional
[17] = Potency index, ratio of 1-Deoxynojirimycin IC50 to test compound IC50 for cytotoxicity against human HCT-116 cells assessed as inhibition of cell proliferation incubated for 48 hrs by MTT assay; type: functional
[18] = test system: HCT-116; assay: Inhibition of colony formation in human HCT-116 cells at 5 to 10 uM incubated for 48 hrs by crystal purple staining based analysis; type: functional, cell-based; conditions: dose 5-10 µM
[19] = test system: HCT-116; assay: Induction of apoptosis in human HCT-116 cells assessed as cell contraction at 10 uM incubated for 24 hrs by Hoechst 33342 staining based fluorescence microscopic analysis; type: functional
[20] = test system: HCT-116; assay: Induction of apoptosis in human HCT-116 cells assessed as appearance of bright blue appearance at 10 uM incubated for 24 hrs by Hoechst 33342 staining based fluorescence microscopic analysis; type: functional, cell-based
[21] = test system: Mitochondrial membrane; assay: Induction of mitochondrial membrane potential loss in human HCT-116 cells assessed as decrease in red fluorescence at 10 uM incubated for 24 hrs by JC-1 staining based fluorescence microscopic analysis; type: cell membranes
[22] = test system: HCT-116; assay: Induction of ROS accumulation in human HCT-116 cells assessed as increase in green fluorescence intensity at 5 to 10 uM incubated for 24 hrs by DCFH-DA staining based fluorescence microscopic analysis; type: functional, cell-based; conditions: dose 5-10 µM
[23] = test system: HCT-116; assay: Induction of ROS accumulation in human HCT-116 cells assessed as increase in green fluorescence intensity at 5 to 10 uM preincubated with NAC for 3 hrs followed by compound addition and measured after 24 hrs by DCFH-DA staining based fluorescence microscopic analysis; type: functional, cell-based; conditions: dose 5-10 µM
[24] = test system: HCT-116; assay: Cytotoxicity against human HCT-116 cells assessed as inhibition of cell proliferation at 5 to 10 uM preincubated with NAC for 3 hrs followed by compound addition and measured after 48 hrs by MTT assay; type: functional, cell-based; conditions: dose 5-10 µM
[25] = test system: HCT-116; assay: Induction of DNA damage in human HCT-116 cells assessed as increase in TS protein expression at 10 uM incubated for 24 hrs by Western blot analysis; type: functional, cell-based
[26] = test system: HCT-116; assay: Induction of apoptosis in human HCT-116 cells assessed as upregulation of Bax protein level at 10 uM incubated for 24 hrs by Western blot analysis; type: functional, cell-based
[27] = test system: HCT-116; assay: Induction of apoptosis in human HCT-116 cells assessed as downregulation of Bcl2 protein level at 10 uM incubated for 24 hrs by Western blot analysis; type: functional, cell-based
[28] = test system: HCT-116; assay: Induction of oxidative stress in human HCT-116 cells assessed as increase in MDA level at 5 to 10 uM incubated for 24 hrs by Lipid Peroxidation MDA assay; type: functional, cell-based; conditions: dose 5-10 µM
[29] = test system: HCT-116; assay: Induction of oxidative stress in human HCT-116 cells assessed as increase in NO level at 5 to 10 uM incubated for 24 hrs; type: functional, cell-based; conditions: dose 5-10 µM
[30] = test system: HCT-116; assay: Induction of oxidative stress in human HCT-116 cells assessed as decrease in GSH concentration at 5 to 10 uM incubated for 24 hrs; type: functional, cell-based; conditions: dose 5-10 µM
[31] = test system: HCT-116; assay: Induction of oxidative stress in human HCT-116 cells assessed as decrease in SOD concentration at 5 to 10 uM incubated for 24 hrs; type: functional, cell-based; conditions: dose 5-10 µM
[32] = test system: HCT-116; assay: Induction of oxidative stress in human HCT-116 cells assessed as decrease in Nrf2 level at 10 uM incubated for 24 hrs by Western blot analysis; type: functional, cell-based
[33] = test system: HCT-116; assay: Anti-metastatic activity in human HCT-116 cells assessed as inhibition of cell migration by measuring wound healing rate at 10 uM incubated for 24 hrs in presence of 1-Deoxynojirimycin by inverted fluorescence microscopic analysis relative to control; type: functional; design: scale not given: the % may be the effect or the level left
[34] = test system: HCT-116; assay: Induction of cell cycle arrest in human HCT-116 cells assessed as accumulation of cells at S phase at 10 uM incubated for 24 hrs in presence of 1-Deoxynojirimycin by flow cytometric analysis (reference value: 4.7 %); type: functional
[35] = test system: HCT-116; assay: Induction of apoptosis in human HCT-116 cells assessed as apoptotic cells at 10 uM incubated for 24 hrs in presence of 1-Deoxynojirimycin by Annexin V-FITC/PI staining based flow cytometric analysis relative to control; type: functional

SMILES: O=c1c(F)cn(C2CCCO2)c(=O)n1CCCCCN1C[C@H](O)[C@@H](O)[C@H](O)[C@H]1CO (some centres not stated)
- logP at 24 h [1]: -2.49
- IC50 [2]: 40.96 µM
- IC50 [3]: 29.3 µM
- IC50 [4]: 43.2 µM
- IC50 [5]: 57.6 µM
- IC50 [6]: 15.6 µM
- IC50 [7]: 38.6 µM
- IC50 [8]: 40.7 µM
- IC50 [9]: 56.3 µM
- selectivity ratio [10]: 3.6

SMILES: OC[C@H]1NC[C@H](O)[C@@H](O)[C@@H]1O [DUVOGLUSTAT]
- logP at 24 h [1]: -0.68
- IC50 [3]: > 100 µM
- IC50 [4]: > 100 µM
- IC50 [5]: > 100 µM
- IC50 [6]: > 100 µM
- IC50 [7]: > 100 µM
- IC50 [8]: > 100 µM
- IC50 [9]: > 100 µM
- Activity [11]: 51.91%
- Activity [12]: 32%
- Activity [13]: 11.29%
- Activity [14]: 34.84%
- Activity [15]: 6.16%
- Activity [16]: 15.17%

SMILES: O=c1[nH]c(=O)n(C2CCCO2)cc1F (configuration not stated) [TEGAFUR]
- IC50 [3]: 96.1 µM
- IC50 [4]: > 100 µM
- IC50 [5]: > 100 µM
- IC50 [6]: 88.6 µM
- IC50 [7]: 99.4 µM
- IC50 [8]: > 100 µM
- IC50 [9]: 23.5 µM
- selectivity ratio [10]: 0.27
- Activity [11]: 44.37%
- Activity [33]: 32%
- Activity [13]: 43.81%
- Activity [34]: 34.84%
- Activity [15]: 8.99%
- Activity [35]: 15.17%

Second part, led by results:

- logP at 24 h [1]: 1.02
- IC50 [2]: 2.76 µM
- Activity [21]: Active
SMILES: O=c1c(F)cn(C2CCCO2)c(=O)n1CCCCCCCCCCCN1C[C@H](O)[C@@H](O)[C@H](O)[C@H]1CO (some centres not stated)
- IC50 [3]: 13 µM
- IC50 [4]: 9.14 µM
- IC50 [5]: 6.34 µM
- IC50 [6]: 1.37 µM
- IC50 [7]: 4.35 µM
- IC50 [8]: 7.72 µM
- IC50 [9]: 19.7 µM
- selectivity ratio [10]: 14.4
- Ratio IC50 [17]: 73
- inhibition [18]: Active
- Activity [11]: 9.42%
- Activity [13]: 49.31%
- Activity [19]: Active
- Activity [20]: Active
- Activity [15]: 69.8%
- Activity [22]: Active
- Activity [23]: inactive
- Activity [24]: inactive
- Activity [25]: Active
- Activity [26]: Active
- Activity [27]: Active
- Activity [28]: Active
- Activity [29]: Active
- Activity [30]: Active
- Activity [31]: Active
- Activity [32]: Active

- logP at 24 h [1]: -0.65
- IC50 [2]: 15.09 µM
SMILES: O=c1c(F)cn(C2CCCO2)c(=O)n1CCCCCCCCN1C[C@H](O)[C@@H](O)[C@H](O)[C@H]1CO (some centres not stated)
- IC50 [3]: 26.8 µM
- IC50 [4]: 19.7 µM
- IC50 [5]: 19.4 µM
- IC50 [6]: 7.32 µM
- IC50 [7]: 12.5 µM
- IC50 [8]: 14.8 µM
- IC50 [9]: 29.3 µM
- selectivity ratio [10]: 4
